From patent US8101774B2, “Ester derivatives and medicinal use thereof” (Japan Tobacco Inc., priority 2004, dated 2012)

Molecular target: T1, Microsomal triglyceride transfer protein (MTP) from human small intestine microsome (Homo sapiens, UniProt P55157)
T1 construct: Human small intestine microsome was dialyzed against 10 mM phosphate buffer; tissue Tissue Transforming Technologies, Inc; host or cells: human small intestine microsome
Experiment: Inhibition test of interliposomal triglyceride (TG) transfer activity by MTP
Format: biochemical
Conditions: purified MTP from human small intestine microsome, 37° C., 1.5 hours
Method: Microsomal triglyceride transfer protein (MTP) from human small intestine microsome (manufactured by Tissue Transforming Technologies, Inc.) was purified in such a way described below. Human small intestine microsome was dialyzed against 10 mM phosphate buffer (300 mL, pH 6.8) twice for about 2 hours and once for further not less than 12 hours, at about 4° C. After dialysis, the mixture was centrifuged at 4° C. and 15,000×g for 5 minutes and then the supernatant was recovered. The previously recovered supernatant was purified by column chromatography on diethylaminoethyl (DEAE) Sepharose using FPLC (Fast Performance Liquid Chromatography) system, and the purified MTP was used for the test as described below.
Small unilamellar-vesicle (SUV) liposome (hereinafter described as donor, containing 0.25% (mol/mol) triolein and 5% (mol/mol) cardiolipin) constituted by triolein labeled with ^14C and non-labeled SUV liposome (hereinafter described as acceptor, containing […] triolein) were prepared in such a way described below.
Firstly, in order to prepare the donor, there were volatilized under a stream of nitrogen gas a phosphatidylcholine solution containing phosphatidylcholine labeled with ^3H, a cardiolipin solution, and a triolein solution containing triolein labeled with ^14C (each solution had been already dissolved in an appropriate organic solvent), or in order to prepare the acceptor, there were volatilized under nitrogen flow a phosphatidylcholine solution containing phosphatidylcholine labeled with ^3H and a cardiolipin solution (each solution had been already dissolved in an appropriate organic solvent). An appropriate amount of a reaction buffer (15 mM Tris-HCl buffer containing 1 mM EDTA.Na2, 40 mM NaCl, and 0.5% (w/v) bovine serum albumin, pH 7.4) was added thereto to be emulsified. The emulsions were treated with ultrasonication under ice-cooling and centrifuged at 4° C. and 159,000×g for 2 hours. Each of the resulting supernatant was used for donor or acceptor.
Each radioactivity in the acceptor and the donor was measured by liquid scintillation counter, and a mixed solution of the acceptor and the donor was prepared with a reaction buffer so as to be a donor-derived radioactivity of 16,000 dpm/400 μL and a acceptor-derived radioactivity of 4,000 dpm/[…]. 400 μL of the mixed solution of the donor and the acceptor, 45 μL of the reaction buffer, 50 μL of MTP (20 μg/mL), and 5 μL of a sample dissolved in DMSO (dimethyl sulfoxide) or 5 μL of DMSO was mixed (total amount: 500 μL). The mixture was incubated at 37° C. for 1.5 hours. After completion of the incubation, 1.25 mL of a suspension of DEAE cellulose (66.7% (v/v)) in 15 mM Tris-HCl buffer (pH 7.4) containing 1 mM EDTA.Na2 was added to the above solution. The mixture was centrifuged to separate the donor (adsorbed on the DEAE cellulose to precipitate) and the acceptor (the supernatant). The radioactivity in the acceptor was measured by liquid scintillation counter. The value obtained by subtracting the radioactivity in a blank group from the radioactivity in the acceptor of a DMSO group was determined as MTP-mediated TG transfer activity, and it was compared with the value obtained by subtracting the radioactivity in the blank group from the radioactivity in a sample group. Here, the blank was prepared by adding 10 mM phosphate buffer (pH 6.8) containing 250 mM NaCl in place of MTP. Inhibition rate (%) was calculated from values obtained according to the following equation. Inhibition rate(%)=(1 minus((radioactivity of sample group minus radioactivity of blank group)/(radioactivity of DMSO group minus radioactivity of blank group)))×100.
50% Inhibition rate (IC50) was determined on the basis of the above equation.

T1 sequence (P55157 19-894): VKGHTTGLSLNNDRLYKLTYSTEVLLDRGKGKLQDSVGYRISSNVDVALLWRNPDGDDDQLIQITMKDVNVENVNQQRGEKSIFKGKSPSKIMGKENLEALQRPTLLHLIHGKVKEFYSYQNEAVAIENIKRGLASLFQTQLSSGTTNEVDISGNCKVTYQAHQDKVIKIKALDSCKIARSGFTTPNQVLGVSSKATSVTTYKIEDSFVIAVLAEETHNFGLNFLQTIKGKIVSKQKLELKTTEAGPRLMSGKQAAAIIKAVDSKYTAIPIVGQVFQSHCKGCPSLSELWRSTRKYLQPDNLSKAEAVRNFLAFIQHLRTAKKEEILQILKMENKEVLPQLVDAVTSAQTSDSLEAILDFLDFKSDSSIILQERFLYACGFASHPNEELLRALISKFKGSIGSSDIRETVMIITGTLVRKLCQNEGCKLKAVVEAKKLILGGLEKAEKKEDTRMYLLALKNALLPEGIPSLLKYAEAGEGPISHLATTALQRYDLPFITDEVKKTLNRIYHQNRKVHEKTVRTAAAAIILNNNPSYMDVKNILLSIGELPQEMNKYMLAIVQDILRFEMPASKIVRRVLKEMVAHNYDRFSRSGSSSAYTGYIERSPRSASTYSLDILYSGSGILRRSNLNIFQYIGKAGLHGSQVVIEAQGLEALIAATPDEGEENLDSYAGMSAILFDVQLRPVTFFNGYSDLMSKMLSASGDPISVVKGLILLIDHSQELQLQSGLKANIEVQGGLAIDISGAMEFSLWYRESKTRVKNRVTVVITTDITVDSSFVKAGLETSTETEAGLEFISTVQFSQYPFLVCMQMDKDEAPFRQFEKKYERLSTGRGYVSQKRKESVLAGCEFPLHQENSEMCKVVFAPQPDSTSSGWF
T1 sequence (P07237 18-508 partner): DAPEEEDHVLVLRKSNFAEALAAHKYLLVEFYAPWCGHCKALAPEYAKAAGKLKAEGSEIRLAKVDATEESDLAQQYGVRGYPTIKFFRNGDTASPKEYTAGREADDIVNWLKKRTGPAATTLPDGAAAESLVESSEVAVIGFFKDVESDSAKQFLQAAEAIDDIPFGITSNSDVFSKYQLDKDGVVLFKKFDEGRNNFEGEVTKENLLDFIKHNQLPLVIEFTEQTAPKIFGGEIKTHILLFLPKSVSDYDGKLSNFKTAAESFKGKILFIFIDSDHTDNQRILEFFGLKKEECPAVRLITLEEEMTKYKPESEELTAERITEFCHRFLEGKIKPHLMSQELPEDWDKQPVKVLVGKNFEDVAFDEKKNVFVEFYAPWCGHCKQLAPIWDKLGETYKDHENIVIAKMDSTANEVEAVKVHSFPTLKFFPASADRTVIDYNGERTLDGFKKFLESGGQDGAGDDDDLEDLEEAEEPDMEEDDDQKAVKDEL

Row | IC50 | Compound
1 | < 10 nM | COC(=O)c1ccc(OC(=O)CCCc2ccc(NC(=O)c3cccnc3-c3ccc(C(F)(F)F)cc3)c(C(=O)N(C)C)c2)cc1 [Compound 1-28, 4-[4-(3-dimethylcarbamoyl-4-{[2-(4-trifluoromethylphenyl)pyridine-3-carbonyl]amino}phenyl)butyryloxy]benzoic acid methyl ester]
2 | < 10 nM | COC(=O)c1ccc(OC(=O)CCCc2ccc(NC(=O)c3ccccc3-c3ccc(C(F)(F)F)cc3)c(C(=O)N(C)C)c2)c(C(C)C)c1 [Compound 1-68, 4-[4-(3-dimethylcarbamoyl-4-{(4′-trifluoromethylbiphenyl-2-carbonyl)amino}phenyl)butyryloxy]-3-isopropylbenzoic acid methyl ester]
3 | < 10 nM | CC(C)OCCOC(=O)c1ccc(OC(=O)CCCc2ccc(NC(=O)c3ccccc3-c3ccc(C(F)(F)F)cc3)c(C(=O)N(C)C)c2)cc1 [Compound 1-76, 4-[4-(3-dimethylcarbamoyl-4-{(4′-trifluoromethylbiphenyl-2-carbonyl)amino}phenyl)butyryloxy]benzoic acid 2-isopropoxyethyl ester]
4 | < 10 nM | CC(=O)N1CCC(OC(=O)c2ccc(OC(=O)CCCc3ccc(NC(=O)c4ccccc4-c4ccc(C(F)(F)F)cc4)c(C(=O)N(C)C)c3)cc2)CC1 [Compound 1-109, 4-[4-(3-dimethylcarbamoyl-4-{(4′-trifluoromethylbiphenyl-2-carbonyl)amino}phenyl)butyryloxy]benzoic acid 1-acetylpiperidin-4-yl ester]
5 | 10 to 100 nM | CC(=O)c1ccc(OC(=O)CCCc2ccc(NC(=O)c3ccccc3-c3ccc(C(F)(F)F)cc3)c(C(=O)N(C)C)c2)cc1 [Compound 1-22, 4-{3-dimethylcarbamoyl-4-[(4′-trifluoromethylbiphenyl-2-carbonyl)amino]phenyl}butyric acid 4-acetylphenyl ester]
6 | 10 to 100 nM | COC(=O)c1ccc(OC(=O)CCCc2ccc(NC(=O)c3ccc(C)nc3-c3ccc(C(F)(F)F)cc3)c(C(=O)N(C)C)c2)c(C)c1 [Compound 1-69, 4-[4-(3-dimethylcarbamoyl-4-{[6-methyl-2-(4-trifluoromethylphenyl)pyridine-3-carbonyl]amino}phenyl)butyryloxy]-3-methylbenzoic acid methyl ester]
7 | 100 to 1000 nM | CN(C)C(=O)c1cc(CC(=O)Oc2ccc(F)cc2)ccc1NC(=O)c1ccccc1-c1ccc(C(F)(F)F)cc1 [Compound 1-4, {3-dimethylcarbamoyl-4-[(4′-trifluoromethylbiphenyl-2-carbonyl)amino]phenyl}acetic acid 4-fluorophenyl ester]
8 | < 10 nM | COC(=O)c1ccc(OC(=O)CCCc2ccc(NC(=O)c3ccccc3-c3ccc(C(=O)OC)cc3)c(C(=O)N(C)C)c2)cc1 [Compound 4-3, 2′-{2-dimethylcarbamoyl-4-[3-(4-methoxycarbonylphenoxycarbonyl)propyl]phenyl-carbamoyl}biphenyl-4-carboxylic acid methyl ester]
9 | < 10 nM | COC(=O)c1ccc(OC(=O)CCCc2ccc(NC(=O)c3ccc(C)nc3-c3ccc(C(F)(F)F)cc3)c(C(=O)N(C)C)c2)c(C(=O)OC)c1 [Compound 1-70, 4-[4-(3-dimethylcarbamoyl-4-{[6-methyl-2-(4-trifluoromethylphenyl)pyridine-3-carbonyl]amino}phenyl)butyryloxy]isophthalic acid dimethyl ester]
10 | < 10 nM | COC(=O)c1cc(C)c(OC(=O)CCCc2ccc(NC(=O)c3ccc(C)nc3-c3ccc(C(F)(F)F)cc3)c(C(=O)N(C)C)c2)c(OC)c1 [Compound 1-46, 4-[4-(3-dimethylcarbamoyl-4-{[6-methyl-2-(4-trifluoromethylphenyl)pyridine-3-carbonyl]amino}phenyl)butyryloxy]-3-methoxy-5-methylbenzoic acid methyl ester]
11 | < 10 nM | COC(=O)c1cc(Cl)c(OC(=O)CCCc2ccc(NC(=O)c3ccc(C)nc3-c3ccc(C(F)(F)F)cc3)c(C(=O)N(C)C)c2)c(C(C)C)c1 [Compound 1-74, 3-chloro-4-[4-(3-dimethylcarbamoyl-4-{[6-methyl-2-(4-trifluoromethylphenyl)pyridine-3-carbonyl]amino}phenyl)butyryloxy]-5-isopropylbenzoic acid methyl ester]
12 | < 10 nM | CC(C)OC(=O)c1ccc(OC(=O)CCCc2ccc(NC(=O)c3ccncc3-c3ccc(C(F)(F)F)cc3)c(C(=O)N(C)C)c2)cc1 [Compound 1-29, 4-[4-(3-dimethylcarbamoyl-4-{[3-(4-trifluoromethylphenyl)pyridine-4-carbonyl]amino}phenyl)butyryloxy]benzoic acid isopropyl ester]
13 | 100 to 1000 nM | CN(C)C(=O)c1cc(CCCC(=O)Oc2ccc(C(=O)O)cc2)ccc1NC(=O)c1ccccc1-c1ccc(C(F)(F)F)cc1 [Compound 1-25, 4-(4-{3-dimethylcarbamoyl-4-[(4′-trifluoromethylbiphenyl-2-carbonyl)amino]phenyl}butyryloxy) benzoic acid]
14 | < 10 nM | COC(=O)c1ccc(OC(=O)CCCc2ccc(NC(=O)c3ccccc3-c3ccc(C(F)(F)F)cc3)c(C(=O)N(C)C)c2)c(F)c1 [Compound 1-10, 4-(4-{3-dimethylcarbamoyl-4-[(4′-trifluoromethylbiphenyl-2-carbonyl)amino]phenyl}butyryloxy)-3-fluoro benzoic acid methyl ester]
15 | < 10 nM | COc1cc(C(=O)OC(C)C)cc(Cl)c1OC(=O)CCCc1ccc(NC(=O)c2ccc(C)nc2-c2ccc(C(F)(F)F)cc2)c(C(=O)N(C)C)c1 [Compound 1-37, 3-chloro-4-[4-(3-dimethylcarbamoyl-4-{[6-methyl-2-(4-trifluoromethylphenyl)pyridine-3-carbonyl]amino}phenyl)butyryloxy]-5-methoxybenzoic acid isopropyl ester]
16 | < 10 nM | COC(=O)c1cc(C)c(OC(=O)CCCc2ccc(NC(=O)c3ccc(C)nc3-c3ccc(C(F)(F)F)cc3)c(C(=O)N(C)C)c2)c(C(=O)OC)c1 [Compound 1-110, 4-[4-(3-dimethylcarbamoyl-4-{[6-methyl-2-(4-trifluoromethylphenyl)pyridine-3-carbonyl]amino}phenyl)butyryloxy]-5-methylisophthalic acid dimethyl ester]
17 | < 10 nM | CN(C)C(=O)c1cc(CCCC(=O)Oc2ccc(C(=O)OCc3cccs3)cc2)ccc1NC(=O)c1ccccc1-c1ccc(C(F)(F)F)cc1 [Compound 1-98, 4-[4-(3-dimethylcarbamoyl-4-{(4′-trifluoromethylbiphenyl-2-carbonyl)amino}phenyl)butyryloxy]benzoic acid thiophen-2-ylmethyl ester]
18 | < 10 nM | CC(C)n1nnc(-c2ccc(OC(=O)CCCc3ccc(NC(=O)c4ccccc4-c4ccc(C(F)(F)F)cc4)c(C(=O)N(C)C)c3)cc2)n1 [Compound 1-115, 4-(3-dimethylcarbamoyl-4-{(4′-trifluoromethylbiphenyl-2-carbonyl)amino}phenyl)butyric acid 4-(2-isopropyl-2H-tetrazol-5-yl)phenyl ester]
19 | < 10 nM | COc1cc(C(=O)OCC(=O)N(C)C)cc(Cl)c1OC(=O)CCCc1ccc(NC(=O)c2ccc(C)nc2-c2ccc(C(F)(F)F)cc2)c(C(=O)N(C)C)c1 [Compound 1-113, 3-chloro-4-[4-(3-dimethylcarbamoyl-4-{[6-methyl-2-(4-trifluoromethylphenyl)pyridine-3-carbonyl]amino}phenyl)butyryloxy]-5-methoxybenzoic acid dimethylcarbamoylmethyl ester]
20 | 10 to 100 nM | COC(=O)c1ccc(OC(=O)CCc2ccc(NC(=O)c3ccccc3-c3ccc(C(F)(F)F)cc3)c(C(=O)N(C)C)c2)cc1 [Compound 1-27, 4-(3-{3-dimethylcarbamoyl-4-[(4′-trifluoromethylbiphenyl-2-carbonyl)amino]phenyl}propionyloxy)benzoic acid methyl ester]
